Literature values as cited in patent US10238670B2, “9-aminomethyl minocycline compounds and methods of use thereof in urinary tract infection (UTI) treatment” (Paratek Pharmaceuticals, Inc., priority 2016, dated 2019).

Test system: human plasma protein
Settings: cited from earlier work

CCCCCCCCCC(=O)N[C@@H](Cc1c[nH]c2ccccc12)C(=O)N[C@H](CC(N)=O)C(=O)N[C@@H](CC(=O)O)C(=O)N[C@@H]1C(=O)NCC(=O)N[C@@H](CCCN)C(=O)N[C@@H](CC(=O)O)C(=O)N[C@H](C)C(=O)N[C@@H](CC(=O)O)C(=O)NCC(=O)N[C@H](CO)C(=O)N[C@@H]([C@H](C)CC(=O)O)C(=O)N[C@@H](CC(=O)c2ccccc2N)C(=O)O[C@@H]1C [Daptomycin]
protein bound in human plasma: > 75%
